Laboratory results reported in PMC9548544, “Population pharmacokinetic model of vancomycin in postoperative neurosurgical patients” (Frontiers in Pharmacology, 2022).

Tests used:
[1] = fixed, not estimated, ref Jing et al., 2020, cited from earlier work
[2] = ref Lin Wu et al., 2015; cited from earlier work
[3] = Population pharmacokinetic (NLME, one-compartment) model of vancomycin in postoperative neurosurgical patients
Procedure: The data of patients who received vancomycin therapy from October 2018 to March 2022 in Beijing Tiantan Hospital, Capital Medical University were retrospectively collected. Inclusion criteria were: 1) age ≥18 years; 2) therapeutic drug monitoring was performed during treatment and at least 1 vancomycin concentration was obtained. Exclusion criteria were: 1) pregnant women ([Lin et al., 2021]); 2) cystic fibrosis ([Jing et al., 2020]).
(§1) The dosage regimen of vancomycin is adjusted by the clinicians according to the patient’s conditions and renal function, including 1 g Qd, 1 g Q12h, 1 g Q8h, 0.5 g Qd, 0.5 g Q12h, 0.5 g Q8h and 0.5 g Q6h. The infusion time cannot be accurately obtained, but 1 h infusion was most used in clinical applications, so the default infusion time in this study was 1 h. Vancomycin serum concentrations were obtained from patient’s therapeutic drug monitoring data, most of which were steady state (>4 doses) trough concentrations. The blood samples were anticoagulated by Ethylene Diamine Tetraacetic Acid, centrifuged at 5,000 rpm for 3 min and analyzed by chemiluminescence immunoassay (ADVIA Centaur® XP, Siemens). Sample calibration and quality control were carried out in accordance with the manufacturer’s instructions and the calibration range was 0.67–90 mg/L.
In this study, nonlinear mixed effects modeling (NLME) method was used to construct the PPK model. Pharmacokinetic parameters and the variability were assessed using the first-order conditional estimation with extended least square method (FOCE-ELS) by using the Phoenix® NLME software (version 8.3; Certara, St. Louis, Missouri). Bootstrap and visual predictive check (VPC) were used to test the stability and predictive ability of the final model.
The one-compartment model with first-order elimination was used to describe the pharmacokinetic characteristics of vancomycin. The sparse trough concentration data led to the inaccurate estimation of the V. Therefore, the population typical value of V was fixed at 60.2 L according to a PPK model in Chinese neurosurgery adult patients ([Jing et al., 2020]).
Inter-individual variability (η) of PPK model was described by exponential random effect model in Eq. 1. Residual variability (ε) was described by combined (multiplicative and additive) error model in Eq. 2. The η was assumed to follow a normal distribution with a mean of zero and a variance of ω ^2. The ε was assumed to follow a normal distribution with a mean of zero and a variance of σ ^2. θi=θTV×e^ηi, (1) Cobs=Cpred+ε×1+(Cpred×σ1/σ2)^2 (2) where θ TV is the population typical value of pharmacokinetic parameters, θ i is the individual (i ^th) pharmacokinetic parameters. Cobs and Cpred respectively represent the measured concentration and predicted concentration of a patient; σ 1 represents the multiplicative σ, and σ 2 represents the standard deviation of ε.
Continuous covariates included age, height, BW, body mass index, serum creatinine (Scr), creatinine clearance (CLcr) and estimated glomerular filtration rate (eGFR). Categorical covariates included sex, RRT and concomitant drugs (mannitol, meropenem and diuretics). CLcr is calculated by the Cockcroft-Gault equation ([Cockcroft and Gault, 1976]). eGFR is calculated by the Chronic Kidney Disease Epidemiology Collaboration (CKD-EPI) equation ([Kong et al., 2013]). All continuous covariates are centered at their median values. The difference of the objective function value (OFV) was used to compare the models.
After the establishment of the base model, the effects of covariates on pharmacokinetic parameters were tested by forward addition and backward elimination under stepwise manner. In the forward addition, if the decrease of OFV was greater than 6.64 (p < 0.01, df = 1), the covariate was considered to have a significant influence on the model parameters.

[4] = Therapeutic drug monitoring of vancomycin serum concentration (chemiluminescence immunoassay); assay type: in vivo, human; settings: mostly steady state (>4 doses) trough, 895 observations from 560 patients, dose 951.19 ± 152.23 mg/time, SD
Procedure: Inclusion criteria were: 1) age ≥18 years; 2) therapeutic drug monitoring was performed during treatment and at least 1 vancomycin concentration was obtained. Exclusion criteria were: 1) pregnant women ([Lin et al., 2021]); 2) cystic fibrosis ([Jing et al., 2020]).
as §1

[5] = ref Rybak, 2006, cited from earlier work

CN[C@H](CC(C)C)C(=O)N[C@H]1C(=O)N[C@@H](CC(N)=O)C(=O)N[C@H]2C(=O)N[C@H]3C(=O)N[C@H](C(=O)N[C@H](C(=O)O)c4cc(O)cc(O)c4-c4cc3ccc4O)[C@H](O)c3ccc(c(Cl)c3)Oc3cc2cc(c3O[C@@H]2O[C@H](CO)[C@@H](O)[C@H](O)[C@H]2O[C@H]2C[C@](C)(N)[C@H](O)[C@H](C)O2)Oc2ccc(cc2Cl)[C@H]1O [vancomycin, Vancomycin]
V (L), base model ([1]; base model): 60.2 L
V (L), Bootstrap ([1]; bootstrap): 60.2 L
V (L), apparent distribution volume, final model ([1]; final model): 60.2 L
V in another eligible study [2]: 54 ± 17 L
Mannitol on CL (L/h), final model, Estimate (%RSE) ([3]; A in e^A of the CL equation when co-medicated with mannitol, final model): 0.13 (17.85) L/h
Mannitol on CL (L/h), Bootstrap Median (%RSE) ([3]; A in e^A when co-medicated with mannitol, bootstrap, 5,000 data sets): 0.13 (17.72) L/h
CL (L/h), base model, Estimate (%RSE) ([3]; base model without covariates): 8.08 (1.93) L/h
CL (L/h), Bootstrap Median (%RSE) ([3]; bootstrap of final model, 5,000 data sets): 7.97 (2.24) L/h
BW on CL (L/h), final model, Estimate (%RSE) ([3]; exponent of (BW/70) in the CL equation, final model): 0.30 (20.19) L/h
BW on CL (L/h), Bootstrap Median (%RSE) ([3]; exponent of (BW/70), bootstrap, 5,000 data sets): 0.30 (19.91) L/h
eGFR on CL (L/h), Bootstrap Median (%RSE) ([3]; exponent of (eGFR/115.2), bootstrap, 5,000 data sets): 0.80 (4.39) L/h
CL (L/h), population typical value, final model, Estimate (%RSE) ([3]; final model, one-compartment, FOCE-ELS, 895 concentrations from 560 patients, iv infusion, covariates centred at eGFR 115.2, BW 70, no mannitol): 7.98 (1.90) L/h
increase in vancomycin CL when co-medicated with mannitol ([3]; final model, with versus without mannitol): 14%
typical value of vancomycin CL per body weight ([3]; this study, postoperative neurosurgical patients): 1.83 mL/min/kg
Concentration (mg/L), mean ± standard deviation [4]: 14.20 ± 7.36 mg/L
absorption by oral administration ([5]; oral): almost not absorbed
α half-life ([5]; patients with normal renal function, printed as 'approximately'): 0.5 to 1 h
terminal elimination half-life ([5]; patients with normal renal function): 3 to 9 h
protein binding rate ([5]; printed as 'about'): 10%–50%
share of vancomycin excreted in prototype through the kidney ([5]; within 24 h after administration): more than 80%
